Among the data in ChEMBL document CHEMBL3507680, “University of Dundee, Gates Library screen for HepG2 cell viability” are cytotoxicity values, retold here.

The series is described as follows: Human HepG2 cell viability assay in 384 well format. The conditions noted are these: HepG2 cells, read-out: Inhibition. Also on record: dose 125 nL, time 70.5 hour; cytotoxicity at 70.5 h: concentration not given beside the values. The series is classed as toxicity, cell-based.

As for `Cn1ccc2c(ccn2CC(=O)Nc2ccc(Br)cc2)c1=O`, the cytotoxicity at 70.5 h stood at 30.5%.

For the compound `Cc1ccc(Oc2ncccc2C(=O)O)c(C)c1`, the cytotoxicity at 70.5 h was -4.94%.

As for `CNC(=O)c1csc(-c2cccnc2)n1`, the cytotoxicity at 70.5 h was 2.96%.

Regarding `Cc1c(NC(=O)C(C)N(C)C)c(=O)n(-c2ccccc2)n1C` (stereo not given), the cytotoxicity at 70.5 h was -1.07%.

For the compound `Cc1ccc(Oc2ncccc2C(=O)N(C)CCCN(C)C)c(C)c1`, the cytotoxicity at 70.5 h is -5.42%.

For the compound `Cc1ccc(Oc2ncccc2C(=O)N(C)CCCN(C)C)cc1`, the cytotoxicity at 70.5 h came out at 0.617%.

`COc1ccc(C(=O)Nc2cccc(SC)c2)c(OC)n1`: the cytotoxicity at 70.5 h came to 26.2%.

For `CC1CN(c2ncccc2C(=O)Nc2cccc3c2CCCC3)CCN1` (stereo not given), the cytotoxicity at 70.5 h is -5.69%.

For `CCCNc1ccc(C(=O)NCCc2cccc(OC)c2)cn1`, the cytotoxicity at 70.5 h is -3.99%.

With `O=C(NCC1CC1)c1cc(Br)cnc1N1CCCCC1`, the cytotoxicity at 70.5 h is -1.59%.

Consider `CCOC(=O)CNC(=O)c1cccnc1Sc1cc(OC)ccc1OC`, for which the cytotoxicity at 70.5 h worked out at 11.1%.

Turning to `COc1ccc(OC)c(Sc2ncccc2C(=O)NCCSC)c1`, the cytotoxicity at 70.5 h is -8.11%.

With `CCSc1ncccc1C(=O)NCc1ccc(N(C)C)cc1`, the cytotoxicity at 70.5 h was -7.85%.

With `N#Cc1cnc(N2CCC3(CC2)OCCO3)nc1N`, the cytotoxicity at 70.5 h was -5.59%.

`O=C(N[C@H]1CCCC[C@@H]1O)c1ccc(-c2nc3ccccc3[nH]2)cc1`: the cytotoxicity at 70.5 h is -1.28%.

As for `O=C(N[C@H]1CCCC[C@@H]1O)c1ccc2nc(-c3ccccc3)[nH]c2c1`, the cytotoxicity at 70.5 h was 9.22%.

Take `O=C(NC[C@H]1CCCC[C@H]1O)c1cccc2[nH]c(-c3cccs3)nc12`: the cytotoxicity at 70.5 h was -5.24%.

For the compound `O=C([C@@H]1CCCN1c1nccc(Nc2ccccc2)n1)N1CCCCC1`, the cytotoxicity at 70.5 h came out at 20.9%.

With `CC(=O)N1N=C(c2ccccc2)OC1C(=O)NCCc1ccc(O)cc1` (stereo not given), the cytotoxicity at 70.5 h is -1.25%.

`CCN(Cc1cnn(CC)c1)C(=O)Cn1c(=O)ccc2ccccc21`: the cytotoxicity at 70.5 h was -5.92%.

As for `O=C1CC2(CCN(C(=O)c3ccc4c(c3)CCCO4)C2)C(=O)N1` (stereo not given), the cytotoxicity at 70.5 h was 2.37%.

For `Cc1cc(C)c2nc(CN3CCC(N4CCOCC4)CC3)cc(O)c2c1`, the cytotoxicity at 70.5 h is -0.693%.

`NC(=O)c1csc(N2C[C@@H](CN3CCOCC3)[C@@H](CO)C2)n1`: the cytotoxicity at 70.5 h is -2.9%.

With `O=C(CCNc1ncc2c(n1)CCN2c1ccccc1)N1CCCC1`, the cytotoxicity at 70.5 h is -9.59%.

For the compound `O=C(NCc1nc(C2CCCCC2)no1)C1CC(=O)N(C2CCCC2)C1` (stereo not given), the cytotoxicity at 70.5 h was -0.128%.

In the case of `COc1ccccc1Oc1ncccc1CNC(=O)C1(C)CCCNC1` (stereo not given), the cytotoxicity at 70.5 h was -1.4%.

Turning to `CCc1ccccc1OC1CN(CC2CCOC2)C1` (stereo not given), the cytotoxicity at 70.5 h amounted to 29.4%.

With `CCOCc1nc2c(c(NCc3cc(C)on3)n1)CCN(C(C)=O)CC2`, the cytotoxicity at 70.5 h is -7.96%.

As to `CSc1cccc(CNC(=O)[C@H]2CNC[C@H](C(=O)N3CCOCC3)C2)c1`, the cytotoxicity at 70.5 h is -2.2%.

For `COCCOC(=O)N1C[C@H]2CC[C@@H]1CN(C1Cc3ccccc3C1)C2`, the cytotoxicity at 70.5 h was -3.17%.

Take `Fc1cccc(C2(CNC3CCCNC3)CCOCC2)c1` (stereo not given): the cytotoxicity at 70.5 h was -1.46%.

`CS(=O)(=O)N1CCCCC1CCc1ccc(O)cc1` (stereo not given): the cytotoxicity at 70.5 h came to 16.6%.

On to `C[C@@H]1CN(CC(C)(C)N2CCOCC2)C[C@@]1(O)C1CC1`, for which the cytotoxicity at 70.5 h was -6.35%.

Take `CC(C1CCN(Cc2ccc(OC(F)F)cc2)CC1)N1CCOCC1` (stereo not given): the cytotoxicity at 70.5 h was -17.4%.

For `COc1ccc(NC(=O)N2CCC3(CC2)NC(=O)CC3C(=O)O)c(C)c1` (stereo not given), the cytotoxicity at 70.5 h is -1.09%.

Turning to `Cc1ccsc1-c1nccn1CCN1CCCCC1CO` (stereo not given), the cytotoxicity at 70.5 h is -4.24%.

With `COc1cccc2ccc(N3CCC(O)(C(=O)O)CC3)nc12`, the cytotoxicity at 70.5 h was -16.9%.

In the case of `Cc1nc(-c2ccncc2)ncc1C(C)NC(=O)CN1CCCCC1` (stereo not given), the cytotoxicity at 70.5 h was -7.41%.

For the compound `CCCNC(=O)N1CCc2ccc(S(=O)(=O)N3CCOCC3)cc2C1`, the cytotoxicity at 70.5 h is -16.2%.

For `Cn1ncc(CN2CCc3onc(-c4cccc(F)c4)c3C2)c1C1CC1`, the cytotoxicity at 70.5 h is -11.6%.

Regarding `CCCn1cnnc1CNC(=O)C1COc2c(cccc2OC)C1` (stereo not given), the cytotoxicity at 70.5 h is -11.4%.

As to `COc1cc(-c2nc3c([nH]2)CCCNC3=O)cc(OC)c1OC`, the cytotoxicity at 70.5 h is -1.49%.

On to `Cc1nc(NC(=O)NC2CC(=O)N(C)C2)nn1C` (stereo not given), for which the cytotoxicity at 70.5 h turned out to be 7.5%.

With `C[C@@H]1CN(C(=O)CCCN2CCCC2)CC[C@@]1(O)C1CCOCC1`, the cytotoxicity at 70.5 h was -3.8%.

For `CC(C)CN(Cc1ccc(O)c(C(=O)O)c1)Cc1cnn(C)c1`, the cytotoxicity at 70.5 h is -1.34%.

In the case of `CN(Cc1nncn1-c1cccc(C(F)(F)F)c1)S(C)(=O)=O`, the cytotoxicity at 70.5 h is 7.25%.

Consider `CC(=O)NCCCC(=O)N1CCC(Sc2cccc(C)c2)CC1`, for which the cytotoxicity at 70.5 h is -12.1%.

Regarding `O=S1(=O)C[C@@H]2[C@H](C1)N(Cc1ccc3ccccc3c1)CCN2CC1CC1`, the cytotoxicity at 70.5 h was 2.29%.

For the compound `Cc1nc(NCCC23CCCN2CCC3)cc(C2CCCNC2)n1` (stereo not given), the cytotoxicity at 70.5 h was -3.41%.

Consider `CC(=O)N(C)c1nc(CN2CCCC2Cn2cncn2)cs1` (stereo not given), for which the cytotoxicity at 70.5 h is -2.86%.

As for `CCc1nccn1C1CCCN(C(=O)c2ccc3nnc(C)n3c2)C1` (stereo not given), the cytotoxicity at 70.5 h is -2.12%.

Turning to `CN1CCN(C2CCN(Cc3nc(-c4ccoc4)no3)CC2)C1=O`, the cytotoxicity at 70.5 h was -6.16%.

With `Cc1ccc(CC(=O)Nc2cc(C(C)C)n[nH]2)cn1`, the cytotoxicity at 70.5 h was found to be 24.6%.

For `COc1ccc(-c2noc(CN3CC(n4cc(C)cn4)C3)n2)cc1`, the cytotoxicity at 70.5 h was -11.2%.

Turning to `O=C1NCCN1C1CCN(Cc2nc(-c3ccsc3)no2)CC1`, the cytotoxicity at 70.5 h amounted to 32.4%.

For the compound `CC(C)C(Sc1nccn1C1CC1)C(=O)NCc1cccnc1` (stereo not given), the cytotoxicity at 70.5 h stood at 16%.

For the compound `Cc1ccc(C(C)NC(=O)CNCCn2cccn2)cc1C` (stereo not given), the cytotoxicity at 70.5 h is -10.7%.

As to `CCCc1nc(CN2CCCCC2Cn2cncn2)cs1` (stereo not given), the cytotoxicity at 70.5 h is -7.91%.

For `CC(C)C(Sc1nncn1C1CC1)C(=O)NCc1cccnc1` (stereo not given), the cytotoxicity at 70.5 h is -2.46%.

Consider `CCc1nccn1C1CCCN(C(=O)c2ccc3c(c2)OCCO3)C1` (stereo not given), for which the cytotoxicity at 70.5 h is -9.17%.

Take `CCc1nccn1C1CCCN(C(=O)c2ccc(OC)c(OC)c2)C1` (stereo not given): the cytotoxicity at 70.5 h is 9.92%.

`Cc1cc(C(=O)N2CCCC(C)C2)ccc1NCc1nc(C2CC2)no1` (stereo not given): the cytotoxicity at 70.5 h is -13.1%.

Take `Cc1nc(C)n(CC2CCCN2Cc2ncc(-c3ccccc3)o2)n1` (stereo not given): the cytotoxicity at 70.5 h is -2.3%.

`CC(C)c1nc(CN(C)C2CCCN(c3cccnn3)C2)no1` (stereo not given): the cytotoxicity at 70.5 h is -5.62%.

In the case of `CCOCCN1CCN(Cc2coc(-c3cccc(F)c3)n2)CC1`, the cytotoxicity at 70.5 h was -1.54%.

Take `Cc1nn(C)c(N(C)C)c1CNCC(O)c1ccccc1F` (stereo not given): the cytotoxicity at 70.5 h is -15.4%.

Consider `O=C(NCC1CCOC1)c1csc(-c2ccccc2)n1` (stereo not given), for which the cytotoxicity at 70.5 h was -15.4%.

On to `Cc1cc(CNC(=O)CCc2c(C)nc3cc(O)nn3c2C)no1`, for which the cytotoxicity at 70.5 h was -6.68%.

With `Cc1nc2cc(O)nn2c(C)c1CCC(=O)NCCc1nccn1C`, the cytotoxicity at 70.5 h is -10.9%.

`CC(C)Cc1cc(NC(=O)c2ccccc2F)n(C)n1`: the cytotoxicity at 70.5 h is -9.5%.

As to `CCOc1ccc(Cl)c(C(=O)N2CCCN(CC(N)=O)CC2)n1`, the cytotoxicity at 70.5 h is -12%.

Take `Cc1cnn(C2CCCN(C(=O)c3ccc4c(c3)CCC4)C2)c1` (stereo not given): the cytotoxicity at 70.5 h was -6.05%.

For `Cc1cnn(C2CCCN(C(=O)c3ccc(O)nc3)C2)c1` (stereo not given), the cytotoxicity at 70.5 h is -12.4%.

In the case of `COC(=O)c1cccn1C1CCN(C(=O)c2ccc(C)[nH]c2=O)CC1`, the cytotoxicity at 70.5 h was -5.32%.

For `COC(=O)c1cccn1C1CCN(C(=O)c2cc(F)ccc2C)CC1`, the cytotoxicity at 70.5 h was -16.9%.

In the case of `CCOc1ccc(Cl)c(C(=O)N2CCN(CC(O)CC)CC2)n1` (stereo not given), the cytotoxicity at 70.5 h is -14%.

With `O=C(c1ccc2[nH]c(=O)[nH]c2c1)N1CCC(Nc2cccnn2)CC1`, the cytotoxicity at 70.5 h was -9.22%.

Take `Cn1nnc2cc(C(=O)N3CCC(Nc4cccnn4)CC3)ccc21`: the cytotoxicity at 70.5 h was -15.7%.

`O=C(c1ccc(-n2cnnc2)cc1)N1CCC(Nc2cccnn2)CC1`: the cytotoxicity at 70.5 h was -15.6%.

Turning to `CNC(=O)c1ccc(C(=O)N2CCCC(n3nc(C)cc3C)C2)cn1` (stereo not given), the cytotoxicity at 70.5 h is -12.8%.

Consider `Cc1oc(C(=O)O)cc1S(=O)(=O)Nc1cccc(Cl)c1F`, for which the cytotoxicity at 70.5 h was -7.29%.

In the case of `CCOc1ccc(Cl)c(C(=O)N2CCCSCC2)n1`, the cytotoxicity at 70.5 h was -10.6%.

On to `COCCN1CCC(NCc2ccc(F)cc2F)C1` (stereo not given), for which the cytotoxicity at 70.5 h amounted to 5.5%.

Consider `COCCN1CCC(NCc2cccc(C)c2)C1` (stereo not given), for which the cytotoxicity at 70.5 h was -12.6%.

Turning to `COc1c(C)cnc(CN2CCC(N(C)C(=O)C3CC3)CC2)c1C`, the cytotoxicity at 70.5 h is -10.5%.

With `CCc1noc(CN2CCN(Cc3cccs3)CC2)n1`, the cytotoxicity at 70.5 h is -10%.

As for `Cc1nn(C)c(C)c1C1COCCN1C(=O)c1cc(F)ccc1F` (stereo not given), the cytotoxicity at 70.5 h was -16.4%.

Turning to `Cc1cc(C(=O)N2CCCC2)ccc1NCC(=O)N1CCOCC1`, the cytotoxicity at 70.5 h was -6.05%.

With `COc1c(C)cnc(CN2CCC(N(C)S(C)(=O)=O)CC2)c1C`, the cytotoxicity at 70.5 h is -16%.

Take `CCNC(=O)N(C)C1CCN(Cc2ncc(C)c(OC)c2C)CC1`: the cytotoxicity at 70.5 h is -8%.

As to `CC(C)(C)N1CCN(C(=O)Nc2cc(C(F)(F)F)c[nH]c2=O)CC1`, the cytotoxicity at 70.5 h came to 10.7%.

As for `c1cc(CCN2CCN(c3ccc4nncn4n3)CC2)ccn1`, the cytotoxicity at 70.5 h was -11.9%.

For `Cc1ccc(NC2CCN(C(=O)CCc3ccsc3)CC2)nn1`, the cytotoxicity at 70.5 h was -7.65%.

For `CC(C)NC(=O)N(C)C(c1cccc(F)c1)c1ccccn1` (stereo not given), the cytotoxicity at 70.5 h was -7.96%.

As to `CS(=O)(=O)CCC(=O)Nc1cc(F)ccc1OCC1CCCO1` (stereo not given), the cytotoxicity at 70.5 h was found to be 12.1%.

Consider `O=C(O)c1c[nH]c2cc(NS(=O)(=O)c3ccc(Cl)cc3F)ccc12`, for which the cytotoxicity at 70.5 h is -5.42%.

As to `NC(=O)c1cc(C2CCCN(C(=O)CCc3cccs3)C2)n[nH]1` (stereo not given), the cytotoxicity at 70.5 h was 10.7%.

`Cc1ccc(NC(=O)N2CCCC2)c(OCC2CCCO2)c1` (stereo not given): the cytotoxicity at 70.5 h was -16.8%.

Regarding `Clc1ccccc1CCN1CCN(c2ccc3nncn3n2)CC1`, the cytotoxicity at 70.5 h is -16.3%.

`CCOCC(O)CN1CCN(C(=O)c2cc(C)ccc2F)CC1` (stereo not given): the cytotoxicity at 70.5 h is -3.47%.
